Reference: publication PMC6397092 (Platelets, 2018)

Biological target: T1, PAR4 (protease-activated receptor 4) (Homo sapiens, UniProt Q96RI0)
T1 sequence (Q96RI0 48-385): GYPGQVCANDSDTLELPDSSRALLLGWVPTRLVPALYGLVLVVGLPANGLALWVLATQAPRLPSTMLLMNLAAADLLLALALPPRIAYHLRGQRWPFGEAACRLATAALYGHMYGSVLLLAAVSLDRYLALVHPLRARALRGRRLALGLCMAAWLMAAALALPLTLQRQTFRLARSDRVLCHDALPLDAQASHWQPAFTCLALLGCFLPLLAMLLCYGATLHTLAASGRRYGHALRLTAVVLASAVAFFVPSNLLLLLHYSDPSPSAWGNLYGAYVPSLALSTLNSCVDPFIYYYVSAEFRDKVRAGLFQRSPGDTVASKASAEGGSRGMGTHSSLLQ
Assay: inhibition of human platelet activation by […] gamma-thrombin
Type: cell-based

Substance: VU0661245
- IC50: 8.42 nM
